According to patent publication US5480990A, “Bicyclopolyazamacrocyclocarboxylic acid complexes for use as contrast agents” (The Dow Chemical Company, priority 1993, dated 1996):

What was measured:
[1] = Percent metal as a complex (Sephadex column, 159Gd tracer); format: physicochemical
Procedure: A stock ^159 GdCl3 solution was prepared by adding 2 μL of 3×10^-4 M ^159 GdCl3 in 0.1N HCl to 2 mL of a 3×10^-4 M GdCl3 carrier solution. Appropriate ligand solutions were then prepared in deionized water. The 1:1 ligand/metal complexes were then prepared by combining the ligands (dissolved in 100-500 μL of deionized water) with 2 mL of the stock 159GDCl3 solution, followed by through mixing to give an acidic solution (pH=2). The pH of the solution was then raised to 7.0 using 0.1N NaOH. The percent metal as a complex was then determined by passing a sample of the complex solution through a Sephadex™ G-50 column, eluting with 4:1 saline ([…]) and collecting 2×3 mL fractions. The amount of radioactivity in the combined elutions was then compared with that left on the resin (non-complexed metal is retained on the resin). […]
A solution of the ligand of Example D was prepared by dissolving 3.8 mg of ligand/0.517 mL of deionized water (pH=2). […] After thorough mixing, the percent metal as a complex was determined by passing a sample of the complex solution through a Sephadex™ column, eluting with 4:1 saline (0.85% NaCl/NH4 OH), and collecting 2×3 mL fractions. The amount of radioactivity in the combined elutions was then compared with that left on the resin. […] By this method complexation was determined to be 92%. […] The pH stability was then determined using the General Procedure above.

[2] = Imaging experiments (MRI) in rat, kidney enhancement; format: in vivo, Sprague Dawley rat; conditions: intramuscular, 0.05-0.1 mmol Gd/kg body weight
Procedure: Injectable solutions were first prepared (0.5M) by dissolving the appropriate amount of each complex in 2 mL of deionized water. The pH of the solutions were then adjusted to 7.4 using 1M HCl or NaOH as needed. The total Gd content of each solution was then determined by ICP analysis.
An anethized Sprague Dawley rat was injected intramuscularly with one of the metal solutions described above at a dose of 0.05-0.1 mmol Gd/kg body weight. Images were then taken at various time intervals and compared with a non-injected control at time 0.

[3] = Biodistribution: % injected dose in several tissues of Sprague Dawley rats, 30 min after tail vein injection; format: in vivo; conditions: rat
Procedure: Sprague Dawley rats were allowed to acclimate for five days then injected with 100 μL of the complex solution via a tail vein. The rats weighed between 150 and 200 g at the time of injection. After 30 min. the rats were killed by cervical dislocation and dissected. The amount of radioactivity in each tissue was determined by counting in a NaI scintillation counter coupled to a multichannel analyzer. The counts were compared to the counts in 100 μL standards in order to determine the percentage of the dose in each tissue or organ.
The percent dose in blood was estimated assuming blood to be 7% of the body weight. The percent dose in bone was estimated by multipuling the percent dose in the femur by 25. The percent dose in muscle was estimated assuming muscle to be 43% of the body weight.
In addition to organ biodistribution, chelates of the compounds of Formula (I) were evaluated for efficiency of bone localization since phosphonates are known for their ability to bind to hydroxyapatite.
The percent of the injected dose of complex of Example 1 (^159 Gd-PCTA) in several tissues are given in Table I. The numbers represent the average of 5 rats? per data point.

[4] = commercial contrast agent, background; cited from earlier work

Compound | complexation after passing through the resin ([1]; 1:1 ligand to metal ratio, after passing through the resin) | complexation (percent metal as a complex) ([1]; 1:1 ligand/metal, before passing through the resin) | uptake by the renal system [2] | enhancement of the kidney image ([2]; vs non-injected control at time 0) | % injected dose in blood, average ([3]; blood (assumed 7% of body weight), 100 μL tail vein, average of 5 rats) | % injected dose in bone, average ([3]; bone (femur x 25), 100 μL tail vein, average of 5 rats) | % injected dose in kidney, average ([3]; kidney, 100 μL tail vein, average of 5 rats) | % injected dose in liver, average ([3]; liver, 100 μL tail vein, average of 5 rats) | % injected dose in muscle, average ([3]; muscle (assumed 43% of body weight), 100 μL tail vein, average of 5 rats) | bone to blood ratio (% dose/g) ([3]; ratio of % dose/g) | bone to liver ratio ([3]; ratio of % dose/g) | bone to muscle ratio ([3]; ratio of % dose/g) | % injected dose in spleen, average ([3]; spleen, 100 μL tail vein, average of 5 rats) | distribution [4] | elimination [4]
O=C([O-])CN1CCN(CC(=O)[O-])Cc2cccc(n2)CN(CC(=O)[O-])CC1.[159Gd+3] [Gd-PCTA, ^159 Gd-3,6,9,15-tetraazabicyclo[9.3.1]pentadeca-1(15),11,13-triene-3,6,9-trimethylenecarboxylic acid] | greater than 98% | 92% | rapidly taken up by the renal system | brilliant enhancement of the kidney cortex as well as peripheral kidney tissue | 5.10 % INJECTED DOSE | 7.38 % INJECTED DOSE | 1.81 % INJECTED DOSE | 0.78 % INJECTED DOSE | 7.76 % INJECTED DOSE | 7 | 3.5 | 4.8 | 0.05 % INJECTED DOSE |  | 
CNC[C@H](O)[C@@H](O)[C@H](O)[C@H](O)CO.CNC[C@H](O)[C@@H](O)[C@H](O)[C@H](O)CO.O=C([O-])CN(CCN(CC(=O)[O-])CC(=O)O)CCN(CC(=O)[O-])CC(=O)O.[Gd+3] [Magnevist, complex of gadolinium with diethylenetriaminepentaacetic acid] |  |  |  |  |  |  |  |  |  |  |  |  |  | freely distributes in extracellular fluid | efficient elimination through the renal system
